Experimental data as given in PMC10755736, “Modulating Liquid–Liquid Phase Separation of Nck Adaptor Protein against Enteropathogenic Escherichia coli Infection” (ACS Central Science, 2023).
Non-standard residues stand in square brackets, D forms with d. Residues, ends and D or L forms follow the SMILES beside them. *: point of attachment. Biotin = O=C1N[C@H]2[C@H](CS[C@H]2CCCCC(=O)*)N1; Benzoyl(4-SO2F) = O=C(c1ccc(S(=O)(=O)F)cc1)*; pY = N[C@@H](Cc1ccc(OP(=O)(O)O)cc1)C(=O)O; Dap = NC[C@H](N)C(=O)O

Experiments:
Nck-SH2 = test: Mass spectrometric analysis of Nck-p1 conjugate; type: binding
Experimental: We next identified the residues in Nck-SH2 that are involved in the reaction with p1 by mass spectrometry. […] The Nck–p1 conjugate was digested with trypsin, and peptide fragments were analyzed with an in-line EASY-spray source and nano-LC UltiMate 3000 HPLC system interfaced with an Elite mass spectrometer, operated in the data-dependent acquisition (DDA) mode with one full MS scan at R = 60,000 (m/z = 200) mass followed by HCD MS/MS scans. […] The fragmentation spectral analysis of [EEHIpYXEVAAD(α)] + [HFKVQLK(β)] extracted by pLabel v2.4.3.0 (Figure 5a and Figure S6 in the Supporting Information)[38],[39] confirmed the ligand-directed conjugation of Nck-SH2 protein with p1 peptide. The underlined lysine residue in the β-chain sequence indicated the cross-linked site on the predicted Nck Lys331 residue. Next, we mutated Nck Lys331 to Ala, expressed and purified the Nck-SH2K331A mutant. […]
The reaction mixture of Nck and p1 were digested with trypsin. Digested peptides were analyzed with an in-line EASY-spray source and nano-LC UltiMate 3000 high-performance liquid chromatography system (Thermo Fisher, USA) interfaced with an Elite mass spectrometer (Thermo Fisher, USA). The eluted peptides were detected by the Elite mass spectrometer, which was operated in data-dependent mode with one full MS scan at R = 60,000 (m/z = 200) mass, followed by MS/MS scans. […]

[1] = test system: Nck puncta in Caco-2 cells; test: Nck puncta number in Caco-2 cells overexpressing dsRed-Nck; type: cell-based; settings: L17E 40 μM, p1 1 μM, N = 20 cells
Source text: Figure 6 Peptide p1 inhibits the formation of the Nck/N-WASP condensate in mammalian cells. (a) Schematic illustration showing inhibition of intracellular Nck coacervation by p1. (b) Confocal microscopic images showing the formation of Nck/N-WASP puncta in HeLa cells that overexpress GFP-N-WASP and dsRed-Nck. Scale bar: 10 μm. (c) FRAP analysis showing the Nck/N-WASP condensates in HeLa cells have fluidity properties based on the recovery of the GFP fluorescent signal after photobleaching in a two-photon microscope with excitation at 920 nm. Scale bar: 5 μm. […] L17E, 40 μM; p1, 1 μM. Statistical analyses of puncta number per cell in the control and experiment (L17E/p1). N = 20 cells. […]
concentrations were added to each well, followed by a 90-min incubation at 37 °C. Diluted streptavidin-HRP solution was then added, followed by substrate solution to develop cover at 450 nm, and recorded by a plate reader. […] And then the samples were scanned and measured at 20% IR Laser power with 30 s laser-on time on a Monolith NT.115 instrument (NanoTemper Technologies). The data were analyzed by KD fitting model (KD) or hill fitting model […]
Plasmid extraction was done using a plasmid DNA Maxi kit (Omega Bio-Tek, GA, USA). […] 48 h after transfection, cells were analyzed by fluorescent micrscopes. Cell viability was measured by a CCK8 assay (Thermo Fisher Scientific) according to its manual.

## CC[C@H](C)[C@H](NC(=O)[C@H](Cc1c[nH]cn1)NC(=O)[C@H](CCC(=O)O)NC(=O)[C@H](CCC(=O)O)NC(=O)CCCC[C@@H]1SC[C@@H]2NC(=O)N[C@@H]21)C(=O)N[C@@H](Cc1ccc(OP(=O)(O)O)cc1)C(=O)N[C@@H](CNC(=O)c1ccc(S(=O)(=O)F)cc1)C(=O)N[C@@H](CCC(=O)O)C(=O)N[C@H](C(=O)N[C@@H](C)C(=O)N[C@@H](C)C(=O)N[C@@H](CC(=O)O)C(N)=O)C(C)C [p1] (Biotin-EEHI[pY][Dap](Benzoyl(4-SO2F))EVAAD-NH2; N-terminus and C-terminus assumed)
Nck-SH2; Nck and Nck-p1 conjugate
  conjugation stoichiometry by LC-MS: only one p1 was conjugated with Nck
Nck-SH2; trypsin digest, MS/MS, K331A mutation
  reaction site on Nck-SH2: Lys331
[1]
  number of Nck puncta: reduced the number of Nck puncta
[1]; 2 h
  decline in Nck puncta numbers: 50%
